Counter-ions that a name gives are not always drawn.
Legend:
Vps34 = Vps34 (Homo sapiens (Human), UniProt Q8NEB9); settings: read-out: Assay C VPS34 IC50
PI 4-kinase beta = PI 4-kinase beta (Homo sapiens (Human), UniProt Q9UBF8); settings: read-out: Assay D PI4Kβ IC50
mTOR = mTOR (Homo sapiens (Human), UniProt P42345); settings: read-out: Assay G mTOR IC50

Vps34, sequence (Q8NEB9 whole entry): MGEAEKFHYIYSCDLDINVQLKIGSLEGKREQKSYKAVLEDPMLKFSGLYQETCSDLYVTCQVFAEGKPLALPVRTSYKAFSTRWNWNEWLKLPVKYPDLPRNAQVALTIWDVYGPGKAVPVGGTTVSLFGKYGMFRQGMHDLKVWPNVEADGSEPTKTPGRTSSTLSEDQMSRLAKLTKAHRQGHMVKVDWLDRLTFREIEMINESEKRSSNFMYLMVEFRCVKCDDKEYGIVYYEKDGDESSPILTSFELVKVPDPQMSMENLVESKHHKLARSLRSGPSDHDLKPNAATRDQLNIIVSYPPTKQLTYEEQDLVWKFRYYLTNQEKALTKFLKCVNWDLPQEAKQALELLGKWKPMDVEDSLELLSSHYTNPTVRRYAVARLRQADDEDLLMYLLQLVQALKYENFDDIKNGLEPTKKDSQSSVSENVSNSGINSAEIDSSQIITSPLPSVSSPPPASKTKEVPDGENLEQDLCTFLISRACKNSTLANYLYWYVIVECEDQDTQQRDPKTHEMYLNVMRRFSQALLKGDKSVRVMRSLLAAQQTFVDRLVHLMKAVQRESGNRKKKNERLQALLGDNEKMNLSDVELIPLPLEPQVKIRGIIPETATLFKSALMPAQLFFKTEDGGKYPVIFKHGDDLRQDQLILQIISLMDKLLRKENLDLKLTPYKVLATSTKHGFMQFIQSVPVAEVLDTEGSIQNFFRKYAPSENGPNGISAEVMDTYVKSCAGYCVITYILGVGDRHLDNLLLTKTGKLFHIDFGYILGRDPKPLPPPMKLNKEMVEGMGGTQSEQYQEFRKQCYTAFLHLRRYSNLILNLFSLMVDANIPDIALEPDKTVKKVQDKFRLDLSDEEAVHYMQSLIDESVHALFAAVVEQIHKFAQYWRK
PI 4-kinase beta, sequence (Q9UBF8 whole entry): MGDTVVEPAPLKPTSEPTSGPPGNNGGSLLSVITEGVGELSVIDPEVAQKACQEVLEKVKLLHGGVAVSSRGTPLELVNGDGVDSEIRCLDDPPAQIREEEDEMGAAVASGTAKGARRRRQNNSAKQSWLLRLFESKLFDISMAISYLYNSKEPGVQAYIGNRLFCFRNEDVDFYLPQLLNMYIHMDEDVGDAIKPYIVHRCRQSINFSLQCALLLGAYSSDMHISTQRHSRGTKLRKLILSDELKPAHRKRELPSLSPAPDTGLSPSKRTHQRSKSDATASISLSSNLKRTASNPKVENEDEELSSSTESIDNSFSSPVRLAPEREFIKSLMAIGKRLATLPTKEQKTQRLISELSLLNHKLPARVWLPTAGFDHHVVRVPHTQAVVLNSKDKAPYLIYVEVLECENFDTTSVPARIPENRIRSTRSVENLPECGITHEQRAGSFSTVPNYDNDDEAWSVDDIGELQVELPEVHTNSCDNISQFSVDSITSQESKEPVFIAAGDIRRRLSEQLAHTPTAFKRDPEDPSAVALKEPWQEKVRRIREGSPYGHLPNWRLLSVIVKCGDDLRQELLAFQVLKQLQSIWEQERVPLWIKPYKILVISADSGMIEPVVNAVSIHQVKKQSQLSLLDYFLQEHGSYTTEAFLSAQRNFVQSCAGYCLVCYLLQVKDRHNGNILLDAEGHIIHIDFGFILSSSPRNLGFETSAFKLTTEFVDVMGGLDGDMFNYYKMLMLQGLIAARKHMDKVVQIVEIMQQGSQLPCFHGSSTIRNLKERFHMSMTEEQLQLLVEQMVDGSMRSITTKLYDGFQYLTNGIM

Compound	IC50 (Vps34) [µM]	IC50 (PI 4-kinase beta) [µM]	IC50 (mTOR) [µM]
Cc1cc(-c2cc(-c3cc(S(=O)(=O)NCC(C)(C)O)ccc3C)cnc2N)sn1 [Example 4.8, 3-(6-Amino-5-(3-methylisothiazol-5-yl)pyridin-3-yl)-N-(2-hydroxy-2-methylpropyl)-4-methyl-benzenesulfonamide hydrochloride]	> 10	3.15	> 10
Cc1noc(-c2cc(-c3cc(S(=O)(=O)NCC4(C)COC4)ccc3C)cnc2N)n1 [Example 4.9, 3-(6-Amino-5-(3-methyl-1,2,4-oxadiazol-5-yl)pyridin-3-yl)-4-methyl-N-((3-methyloxetan-3-yl)methyl)benzene-sulfonamide]	> 10	> 10	> 10
Cc1noc(-c2cc(-c3cc(S(=O)(=O)NCCC(C)(C)O)ccc3C)cnc2N)n1 [Example 5, 3-[6-Amino-5-(3-methyl-[1,2,4]oxadiazol-5-yl)-pyridin-3-yl]-N-(3-hydroxy-3-methyl-butyl)-4-methyl-benzenesulfonamide hydrochloride]	> 9.55	4.9	6.5
Cc1ccc(S(=O)(=O)NCC(C)(C)O)cc1-c1cnc(N)c(-c2nc(C(C)C)no2)c1 [Example 5.1, 3-(6-Amino-5-(3-isopropyl-1,2,4-oxadiazol-5-yl)pyridin-3-yl)-N-(2-hydroxy-2-methylpropyl)-4-methylbenzenesulfonamide hydrochloride]	> 10	4.4	8.2
Cc1cnc(-c2cc(-c3cc(S(=O)(=O)N[C@H]4CC[C@H](O)CC4)ccc3C)cnc2N)o1 [Example 5.2, trans 3-(6-Amino-5-(5-methyloxazol-2-yl)pyridin-3-yl)-N-(4-hydroxycyclohexyl)-4-methylbenzene sulfonamide hydrochloride]	> 10	0.9	> 10
Cc1ncc(-c2cc(-c3cc(S(=O)(=O)NCCCO)ccc3C)cnc2N)s1 [Example 9, 3-[6-Amino-5-(2-methyl-thiazol-5-yl)-pyridin-3-yl]-N-(3-hydroxy-propyl)-4-methyl-benzenesulfonamide]	0.89	1.92	5.9
Cc1noc(-c2cc(-c3cc(S(=O)(=O)NOCC(C)(C)O)ccc3C)cnc2N)n1 [Example 11, 3-[6-Amino-5-(3-methyl-[1,2,4]oxadiazol-5-yl)-pyridin-3-yl]-N-(2-hydroxy-2-methyl-propoxy)-4-methyl-benzenesulfonamide, hydrochloride salt]	> 10	5.1	> 10
Cc1noc(-c2cc(-c3cc(S(=O)(=O)N[C@H]4CC[C@H](O)CC4)ccc3C)cnc2N)n1 [Example 12, trans 3-[6-Amino-5-(3-methyl-[1,2,4]oxadiazol-5-yl)-pyridin-3-yl]-N-(4-hydroxy-cyclohexyl)-4-methyl-benzenesulfonamide, hydrochloride salt]	> 10	5.3	> 10
Cc1ncc(-c2cc(-c3cc(S(=O)(=O)NCCC(C)(C)O)ccc3C)cnc2N)o1 [Example 13, 3-[6-Amino-5-(2-methyl-oxazol-5-yl)-pyridin-3-yl]-N-(3-hydroxy-3-methyl-butyl)-4-methyl-benzenesulfonamide, hydrochloride salt]	> 10	4.4	1.6
Cc1ccc(S(=O)(=O)NCCC(C)(C)O)cc1-c1cnc(N)c(-c2ccncc2)c1 [Example 18, 3-(2-Amino-[3,4′]bipyridinyl-5-yl)-N-(3-hydroxy-3-methyl-butyl)-4-methyl-benzenesulfonamide]	> 9.1	> 9.1	> 9.1
Cc1noc(-c2cc(-c3cc(S(=O)(=O)N[C@H]4CC[C@H](CO)CC4)ccc3C)cnc2N)n1 [Example 19, trans 3-[6-Amino-5-(3-methyl-[1,2,4]oxadiazol-5-yl)-pyridin-3-yl]-N-(4-hydroxymethyl-cyclohexyl)-4-methyl-benzenesulfonamide hydrochloride]	> 10	1.3	> 10
Cc1noc(-c2cc(-c3cc(S(=O)(=O)NCC4CCOC4)ccc3C)cnc2N)n1 (stereo not drawn) [Example 29, 3-(6-Amino-5-(3-methyl-1,2,4-oxadiazol-5-yl)pyridin-3-yl)-4-methyl-N-((tetrahydrofuran-3-yl)methyl)benzenesulfonamide]	> 10	9.9	> 10
Cc1noc(-c2cc(-c3cc(S(=O)(=O)NCCC4(O)CCCC4)ccc3C)cnc2N)n1 [Example 37.11, 3-(6-Amino-5-(3-methyl-1,2,4-oxadiazol-5-yl)pyridin-3-yl)-N-(2-(1-hydroxycyclopentyl)ethyl)-4-methylbenzenesulfonamide]	> 10	8.1	> 10
Cc1noc(-c2cc(-c3cc(S(=O)(=O)NCC4(CO)CCCC4)ccc3C)cnc2N)n1 [Example 37.13, 3-(6-Amino-5-(3-methyl-1,2,4-oxadiazol-5-yl)pyridin-3-yl)-N-((1-(hydroxymethyl)cyclopentyl)methyl)-4-methylbenzenesulfonamide]	> 10	5	> 10
Cc1noc(-c2cc(-c3cc(S(=O)(=O)NCC4(O)CCC4)ccc3C)cnc2N)n1 [Example 37.15, 3-(6-Amino-5-(3-methyl-1,2,4-oxadiazol-5-yl)pyridin-3-yl)-N-((1-hydroxycyclobutyl)methyl)-4-methylbenzenesulfonamide]	> 10	5.4	> 10
Cc1noc(-c2cc(-c3cc(S(=O)(=O)NCC(C)(C)CO)ccc3C)cnc2N)n1 [Example 37.18, 3-(6-Amino-5-(3-methyl-1,2,4-oxadiazol-5-yl)pyridin-3-yl)-N-(3-hydroxy-2,2-dimethylpropyl)-4-methylbenzenesulfonamide hydrochloride]	> 10	> 10	> 10
Cc1noc(-c2cc(-c3cc(S(=O)(=O)NCC4(CO)CCC4)ccc3C)cnc2N)n1 [Example 37.26, 3-(6-Amino-5-(3-methyl-1,2,4-oxadiazol-5-yl)pyridin-3-yl)-N-((1-(hydroxymethyl)cyclobutyl)methyl)-4-methylbenzenesulfonamide]	> 10	> 10	> 10
Cc1noc(-c2cc(-c3cc(S(=O)(=O)N4CC(CO)C4)ccc3C)cnc2N)n1 [Example 37.39, (S)-((3-(6-Amino-5-(3-methyl-1,2,4-oxadiazol-5-yl)pyridin-3-yl)-4-methylphenyl)sulfonyl)azetidin-3-yl)methanol]	> 10	4.8	> 10
CCCONS(=O)(=O)c1ccc(C)c(-c2cnc(N)c(-c3nc(C)no3)c2)c1 [Example 44, 3-(6-Amino-5-(3-methyl-1,2,4-oxadiazol-5-yl)pyridin-3-yl)-4-methyl-N-propoxybenzenesulfonamide]	> 10	3.55	> 10
Cc1noc(-c2cc(-c3cc(S(=O)(=O)NOC(C)C)ccc3C)cnc2N)n1 [Example 45, 3-(6-Amino-5-(3-methyl-1,2,4-oxadiazol-5-yl)pyridin-3-yl)-N-isopropoxy-4-methylbenzenesulfonamide]	> 10	7.4	9.1
Cc1noc(-c2cc(-c3cc(S(=O)(=O)NOC(C)(C)C)ccc3C)cnc2N)n1 [Example 47, 3-(6-Amino-5-(3-methyl-1,2,4-oxadiazol-5-yl)pyridin-3-yl)-N-(tert-butoxy)-4-methylbenzenesulfonamide]	> 10	4.4	4
Cc1noc(-c2cc(-c3cc(S(=O)(=O)NCCC(F)(F)F)ccc3C)cnc2N)n1 [Example 48, 3-(6-Amino-5-(3-methyl-1,2,4-oxadiazol-5-yl)pyridin-3-yl)-4-methyl-N-(3,3,3-trifluoropropyl)benzenesulfonamide]	> 10	6	> 10
Cc1noc(-c2cc(-c3cc(S(=O)(=O)NC4CCOCC4)ccc3C)cnc2N)n1 [Example 49, 3-(6-Amino-5-(3-methyl-1,2,4-oxadiazol-5-yl)pyridin-3-yl)-4-methyl-N-(tetrahydro-2H-pyran-4-yl)benzenesulfonamide]	> 10	6.8	8.1
Cc1ccc(S(=O)(=O)N[C@H]2CC[C@H](O)CC2)cc1-c1cnc(N)c(-c2nc(C(F)F)no2)c1 [Example 70, 3-(6-Amino-5-(3-(difluoromethyl)-1,2,4-oxadiazol-5-yl)pyridin-3-yl)-N-((1r,4r)-4-hydroxycyclohexyl)-4-methylbenzenesulfonamide hydrochloride]	> 10	8.2	> 10
Cc1cc(-c2cc(-c3cc(S(=O)(=O)N[C@H]4CC[C@H](CO)CC4)ccc3C)cnc2N)ccn1 [Example 77, trans-3-(2-Amino-2′-methyl-[3,4′-bipyridin]-5-yl)-N-(−4-(hydroxymethyl)cyclohexyl)-4-methylbenzenesulfonamide hydrochloride]	> 10	2.1	> 10
Cc1ccc(S(=O)(=O)NCC(C)(C)O)cc1-c1cnc(N)c(-c2nc(C3CC3)no2)c1 [Example 80, 3-(6-Amino-5-(3-cyclopropyl-1,2,4-oxadiazol-5-yl)pyridin-3-yl)-N-(2-hydroxy-2-methylpropyl)-4-methylbenzenesulfonamide hydrochloride]	> 10	3.55	> 10
Cc1cc(-c2cc(-c3cc(S(=O)(=O)NO[C@H]4C[C@H](O)C4)ccc3C)cnc2N)on1 [Example 95, trans-3-(6-amino-5-(3-methylisoxazol-5-yl)pyridin-3-yl)-N-((1r,3r)-3-hydroxycyclobutoxy)-4-methylbenzenesulfonamide]	> 10	0.86	> 10

From US10112926B2 (priority 2014, dated 2018)
